Assay [1] concerns the target Interferon-induced, double-stranded RNA-activated protein kinase (Homo sapiens) (UniProt P19525). As to the kind of experiment: Selectivity interaction (KinomeScan (DiscoverX)) EUB0001619a EIF2AK2. Conditions: at 1 µM.
Assay [2] has as its target T1, SNF-related serine/threonine-protein kinase (Homo sapiens) (UniProt Q9NRH2).
T1 sequence (whole entry): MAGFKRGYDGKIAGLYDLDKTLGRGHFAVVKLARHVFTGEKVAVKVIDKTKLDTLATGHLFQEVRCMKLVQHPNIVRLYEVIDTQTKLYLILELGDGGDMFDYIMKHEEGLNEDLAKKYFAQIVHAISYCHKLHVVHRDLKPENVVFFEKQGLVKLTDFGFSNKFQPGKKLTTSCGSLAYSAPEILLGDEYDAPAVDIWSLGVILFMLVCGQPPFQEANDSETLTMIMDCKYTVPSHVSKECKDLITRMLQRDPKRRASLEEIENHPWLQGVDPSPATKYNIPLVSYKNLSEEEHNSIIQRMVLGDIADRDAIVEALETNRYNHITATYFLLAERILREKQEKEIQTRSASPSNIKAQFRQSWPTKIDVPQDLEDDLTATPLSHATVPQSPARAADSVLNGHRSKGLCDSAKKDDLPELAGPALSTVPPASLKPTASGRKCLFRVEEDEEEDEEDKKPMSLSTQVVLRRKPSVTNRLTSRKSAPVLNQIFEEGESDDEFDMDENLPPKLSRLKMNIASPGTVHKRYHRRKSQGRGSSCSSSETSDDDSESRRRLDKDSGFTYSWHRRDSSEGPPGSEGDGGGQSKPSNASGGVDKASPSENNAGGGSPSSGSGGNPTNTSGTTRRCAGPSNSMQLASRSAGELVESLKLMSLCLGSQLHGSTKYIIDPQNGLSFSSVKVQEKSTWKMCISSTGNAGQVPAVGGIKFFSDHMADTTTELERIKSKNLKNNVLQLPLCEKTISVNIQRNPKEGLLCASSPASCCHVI
As to the kind of experiment: Selectivity interaction (ActivX KiNativ screen (kinase selectivity in THP-1 cell lysates)) EUB0000639a SNRK. The assay is classed as subcellular. Conditions: lysate, at 5 µM.

Assay [3] addresses T2, Ephrin type-A receptor 8 (Homo sapiens) (UniProt P29322).
T2 sequence (whole entry): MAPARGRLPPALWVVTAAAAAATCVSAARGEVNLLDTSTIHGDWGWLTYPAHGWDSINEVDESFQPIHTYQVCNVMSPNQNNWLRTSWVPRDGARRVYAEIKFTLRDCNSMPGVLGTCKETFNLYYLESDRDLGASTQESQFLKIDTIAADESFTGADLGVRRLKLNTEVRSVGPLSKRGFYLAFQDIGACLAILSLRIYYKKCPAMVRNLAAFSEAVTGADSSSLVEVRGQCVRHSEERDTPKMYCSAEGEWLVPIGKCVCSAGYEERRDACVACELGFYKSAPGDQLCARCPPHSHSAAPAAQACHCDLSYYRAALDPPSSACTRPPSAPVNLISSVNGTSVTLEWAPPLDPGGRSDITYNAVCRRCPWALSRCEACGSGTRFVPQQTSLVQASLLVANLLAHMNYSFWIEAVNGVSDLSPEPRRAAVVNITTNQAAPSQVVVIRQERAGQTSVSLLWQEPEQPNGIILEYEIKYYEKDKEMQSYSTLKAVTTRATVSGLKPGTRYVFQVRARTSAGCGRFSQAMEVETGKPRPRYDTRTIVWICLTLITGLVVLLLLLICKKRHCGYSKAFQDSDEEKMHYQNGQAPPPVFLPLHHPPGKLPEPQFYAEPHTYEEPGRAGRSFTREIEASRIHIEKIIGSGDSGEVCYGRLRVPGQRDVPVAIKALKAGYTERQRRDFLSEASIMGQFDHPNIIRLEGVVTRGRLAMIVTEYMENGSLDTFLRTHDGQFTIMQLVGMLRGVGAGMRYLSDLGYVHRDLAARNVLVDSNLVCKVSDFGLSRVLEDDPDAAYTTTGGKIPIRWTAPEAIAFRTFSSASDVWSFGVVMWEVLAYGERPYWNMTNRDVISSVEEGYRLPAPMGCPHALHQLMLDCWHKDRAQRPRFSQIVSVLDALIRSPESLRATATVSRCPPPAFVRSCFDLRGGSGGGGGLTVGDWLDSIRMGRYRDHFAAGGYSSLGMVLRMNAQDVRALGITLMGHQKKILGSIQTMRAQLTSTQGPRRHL
Nature of the assay: Selectivity interaction (KinomeScan (DiscoverX)) EUB0000595a EPHA8. Conditions: at 10 µM.

Our source for the % of control and % of inhibition values is ChEMBL document CHEMBL5465560, “Selectivity Literature for EUbOPEN Chemogenomic Library” (2024).

Interferon-induced, double-stranded RNA-activated protein kinase (Homo sapiens), sequence (P19525 whole entry): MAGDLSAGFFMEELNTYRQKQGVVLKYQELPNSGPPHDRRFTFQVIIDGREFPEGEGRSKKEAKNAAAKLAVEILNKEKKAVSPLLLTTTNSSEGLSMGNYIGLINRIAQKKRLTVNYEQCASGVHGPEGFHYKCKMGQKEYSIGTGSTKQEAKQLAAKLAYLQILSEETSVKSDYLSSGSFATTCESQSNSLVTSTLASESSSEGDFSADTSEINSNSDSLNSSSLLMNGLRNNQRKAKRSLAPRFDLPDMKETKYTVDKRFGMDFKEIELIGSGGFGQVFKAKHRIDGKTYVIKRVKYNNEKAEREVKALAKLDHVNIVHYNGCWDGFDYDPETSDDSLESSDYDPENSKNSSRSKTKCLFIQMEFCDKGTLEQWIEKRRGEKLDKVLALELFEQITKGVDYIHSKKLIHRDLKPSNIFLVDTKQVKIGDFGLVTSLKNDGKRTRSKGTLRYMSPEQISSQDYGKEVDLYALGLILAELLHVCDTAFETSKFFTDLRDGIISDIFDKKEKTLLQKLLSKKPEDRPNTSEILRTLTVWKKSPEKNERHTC

`N#Cc1cccc(-c2c[nH]c3ncnc(N4CCOCC4)c23)c1` registered a % of control in assay [1] of 100%.
In assay [2], `CC[C@@H]1[C@H](F)C(=O)N[C@@H]1COc1nccc2cc(C(N)=O)c(OC)cc12` [ZIMLOVISERTIB] returned a % of inhibition of 16.9%.
Regarding `COCC(=O)NC/C=C/c1ccc2ncnc(Nc3ccc(Oc4ccc(C)nc4)c(C)c3)c2c1` [CP-724714], the % of control in assay [3] came out at 98%.
